Test results: patent US20140303116A1, “CARNOSINE HYALURONIC ACID MIXTURES AND THEIR USE” (priority 2010, published 2014)

Tests used:
skin fibroblasts = assay: scratch assay, migration of skin fibroblasts; format: cell-based; details: 48 hours of treatment after scratching; doses of between 0.2 and 0.8%; mitomycin C pre-treated cells, DMEM with 10% FCS
Method: The solutions obtained from Examples 2 and 3 were used to prepare dilute […], and these solutions, whose pH initially changed from 3 to 1.5, were neutralized by the addition of NaOH.
The effect of the above solutions on the migration of skin fibroblasts was tested in vitro by means of a scratch assay. In this test, cells mimic cell migration during an in vivo tissue repair.
The method is based on scratch-wounding a confluent monolayer of cells so that the cells capable of migration are stimulated to cover the artificial gap in an attempt to re-establish new cell-to-cell contacts. […]
In this assay, the fibroblasts were scratch-wounded and then treated with the test substances at different concentrations. At 48 hours after treatment, cells were photographed and stained with crystal violet, and the migrated cells were counted under an optical microscope. […]
Cells were cultivated in DMEM with 10% FCS and treated with the dilute solutions of L-carnosine hyaluronate as described above for 48 hours after scratching. […] Cells were counted after staining with crystal violet.
Cells were cultivated in DMEM with 10% FCS and treated with the dilute solutions of D-carnosine hyaluronate as described above for 48 hours after scratching. […] Cells were counted after staining with crystal violet.

collagen III = collagen III expression in fibroblasts by Western blotting; format: cell-based; details: fibroblasts exposed to 1.0 and 1.5% for 48 hours, beta-actin internal control
Method: The effect of solutions diluted to 1% and 1.5% and neutralized according to Example 4 on the production of collagen by fibroblasts treated with these solutions was verified.
The Western blotting technique was used to verify any production of collagen by the fibroblasts treated with L- and D-carnosine hyaluronate for 48 hours.
Fibroblast cultures were lysed with RIPA buffer at pH 7.4. Then, the samples were run onto a 10% SDS-polyacrylamide gel under reducing conditions. When the run has been completed, the proteins were transferred onto nitrocellulose membranes, incubated with anti-collagen III antibodies and then with the secondary antibody. […] The beta-actin expression was used as an internal control.

Substance	migration of skin fibroblasts (migrated cell count) (skin fibroblasts)	collagen III synthesis vs control cells treated with saline (collagen III)
L-carnosine hyaluronate	statistically significantly migrate	synthesize more collagen III than control cells
D-carnosine hyaluronate	statistically significantly migrate	synthesize more collagen III than control cells
